US20160137639A1, “TRIAZOLE-ISOXAZOLE COMPOUND AND MEDICAL USE THEREOF” (JAPAN TOBACCO INC., priority 2012, published 2016)
Read-outs that look alike come from different tables or passages of the source.

How the values were obtained:
human RORγ = biological target: T1, human RORγ (Homo sapiens, UniProt P51449); assay: Luciferase reporter gene assay of inhibitory effect against RORγ transcriptional activity (GAL4-hRORγ plasmid in CHO cells); format: cell-based
T1 construct: human, NM_005060.3 and from Ser253 to Lys518; expressed in transfected cells; host or cells: CHO cells (transient co-transfection with pG5-Luc reporter)
T1 sequence (P51449 253-518): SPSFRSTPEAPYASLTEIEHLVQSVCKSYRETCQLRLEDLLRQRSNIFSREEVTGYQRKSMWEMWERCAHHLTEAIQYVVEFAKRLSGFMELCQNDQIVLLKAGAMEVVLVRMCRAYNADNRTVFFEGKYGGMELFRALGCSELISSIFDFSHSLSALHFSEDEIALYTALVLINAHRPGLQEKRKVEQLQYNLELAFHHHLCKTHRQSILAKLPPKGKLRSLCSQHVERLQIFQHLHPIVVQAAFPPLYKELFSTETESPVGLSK

mouse RORγ = biological target: T2, mouse RORγ (Mus musculus, UniProt P51450); assay: Luciferase reporter gene assay of inhibitory effect against RORγ transcriptional activity (GAL4-mRORγ plasmid in CHO cells); format: cell-based
T2 construct: mouse, NM_011281.2 and from Ile251 to Lys516; expressed in transfected cells; host or cells: CHO cells (transient co-transfection with pG5-Luc reporter)
T2 sequence (P51450 251-516): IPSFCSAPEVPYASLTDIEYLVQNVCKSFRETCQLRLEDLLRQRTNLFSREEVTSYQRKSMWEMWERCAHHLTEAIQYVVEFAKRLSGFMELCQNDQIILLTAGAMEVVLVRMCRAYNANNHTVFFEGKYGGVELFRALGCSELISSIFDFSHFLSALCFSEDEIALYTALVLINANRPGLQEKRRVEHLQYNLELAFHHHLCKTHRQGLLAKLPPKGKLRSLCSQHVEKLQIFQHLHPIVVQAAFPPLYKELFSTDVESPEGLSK
Summary of the method: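 Readout is intracellular luciferase after 2-day compound exposure (8 concentrations, 0.1% DMSO) in CHO cells expressing GAL4 fused to mouse RORγ LBD residues Ile251–Lys516 plus pG5-Luc reporter. EC50 fitted from %-of-control; points showing resazurin-detected cytotoxicity dropped.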

SMILES | EC50 (human RORγ; read-out: LUC EC50 (μM) hRORg) [µM] | EC50 (mouse RORγ; read-out: LUC EC50 (μM) mRORg) [µM] | EC50 (human RORγ; read-out: LUC EC50 hRORg) [µM] | EC50 (mouse RORγ; read-out: LUC EC50 mRORg) [µM]
Cc1ccc(NC(=O)CCc2nnc(CCC3CCCCC3)n2[C@@H]2C[C@H]2C)c(C)c1 (racemic) [Example F-141] | > 3 | < 3 |  | 
Cc1ccc(NC(=O)C(CC(=O)O)Cc2noc([C@H]3C[C@@H](CC(C)C)C3)c2C2CC2)c(C)c1 (stereo partly shown) [Example F-666] |  |  | > 3 | < 3
Cc1ccc(NC(=O)C[C@H](Cc2nccs2)c2nnc([C@H]3C[C@@H](CC(C)C)C3)n2C2CC2)c(C)c1 [Example F-475] | < 3 | < 3 |  | 
Cc1ccc(NC(=O)C[C@H](CCC(=O)O)c2noc(-c3cc(CC(C)C)[nH]n3)c2C2CC2)c(F)c1 [Example E-07] | > 3 | > 3 |  | 
Cc1ccc(NC(=O)CCc2nnc(CCC(C)C)n2C2CC2)cc1C [Example F-74] | > 3 | > 3 |  | 
C=CCC(CC(=O)Nc1ccc(C)cc1C)c1nnc([C@H]2C[C@@H](CC(C)C)C2)n1C1CC1 (mixture of isomers) [Example F-509] |  |  | < 3 | < 3
Cc1ccc(NC(=O)CC(Cc2nnn[nH]2)c2nnc([C@H]3C[C@@H](CC(C)C)C3)n2C2CC2)c(C)c1 (mixture of isomers) [Example F-481] | > 3 | > 3 |  | 
Cc1cc(F)ccc1NC(=O)C[C@H](CCO)c1nnc([C@H]2C[C@@H](CC(C)C)C2)n1C1CC1 [Example F-594] |  |  | < 3 | < 3
COc1c(CNC(=O)CCc2nnc(CCC(C)C)n2C2CC2)ccc(C)c1C [Example F-262] | > 3 | > 3 |  | 
CCCCc1nnc(CCC(=O)Nc2cccc(Cl)c2C)n1C1CC1 [Example F-105] | > 3 | > 3 |  | 
Cc1c(Cl)cccc1NC(=O)CCc1nnc(COC2CCCCC2)n1C1CC1 [Example F-144] | < 3 | < 3 |  | 
CCn1c(CCC(=O)NCc2cccc(C)c2)nnc1CCC1CCCCC1 [Example F-42] | > 3 | > 3 |  | 
CCN(CC)C(=O)CN1C[C@H](C(=O)Nc2ccc(C)cc2C)[C@@H](c2nnc([C@H]3C[C@@H](CC(C)(C)C)C3)n2C2CC2)C1 [Example F-649] |  |  | < 3 | < 3
Cc1ccc(NC(=O)CC(CC(=O)N2CCCC2)c2nnc([C@H]3C[C@@H](CC(C)C)C3)n2C2CC2)c(C)c1 (mixture of isomers) [Example F-501] |  |  | < 3 | < 3
Cc1cnccc1NC(=O)CCc1nnc(CCC(C)C)n1C1CC1 [Example F-89] | > 3 | > 3 |  | 
CC(=O)N1C[C@H](C(=O)Nc2ccc(C)cc2C)[C@@H](c2nnc([C@H]3C[C@@H](OC(C)(C)C)C3)n2C2CC2)C1 (racemic) [Example F-382] | < 3 | < 3 |  | 
Cc1ccc(NC(=O)CC(CO)c2nnc(CCCC(C)(C)C)n2C2CC2)c(C)c1 (racemic) [Example F-497] |  |  | < 3 | < 3
Cc1ccc(NC(=O)CCc2noc(C3(O)CC(CC(C)(C)C)C3)c2C2CC2)c(Cl)c1 (mixture of isomers) [Example F-732] |  |  | < 3 | < 3
CC(=O)N1C[C@H](C(=O)Nc2ccc(C)cc2C)[C@@H](c2nnc([C@H]3C[C@@H](c4ccccc4)C3)n2C2CC2)C1 (racemic) [Example F-346] | < 3 | < 3 |  | 
CC1(c2cc(-c3onc([C@@H](CCC(=O)O)CC(=O)Nc4ccc(F)cc4Cl)c3C3CC3)no2)CCCC1 [Example E-72] | < 3 | < 3 |  | 
COc1cccc(NC(=O)CCc2nnc(CCC(C)C)n2C2CC2)c1C [Example F-85] | > 3 | > 3 |  | 
Cc1ccc(NC(=O)C[C@H](CCC(=O)O)c2noc(-c3cc(CCC(C)(C)C)on3)c2C2CC2)c(Cl)c1 [Example E-22] | < 3 | < 3 |  | 
CCc1ccccc1CNC(=O)CCc1nnc(CCC(C)C)n1C1CC1 [Example F-125] | > 3 | > 3 |  | 
CCn1c(CCC(=O)Nc2cccc3ccccc23)nnc1CCC(C)C [Example F-19] | > 3 | < 3 |  | 
CCn1c(CCC(=O)Nc2cc(C)cc(C)c2)nnc1CCC1CCCC1 [Example F-49] | > 3 | > 3 |  | 
CC(=O)N1C[C@H](C(=O)Nc2ccc(C)cc2C)[C@@H](c2nnc([C@H]3C[C@@H](CC(C)(C)C)C3)n2C2CC2)C1 [Example F-461] | < 3 | < 3 |  | 
Cc1c(Cl)cccc1NC(=O)CCc1nnc(CCn2cccn2)n1C1CC1 [Example F-172] | > 3 | > 3 |  | 

SMILES | EC50 (human RORγ; read-out: LUC EC50 (μM) hRORg) [µM] | EC50 (mouse RORγ; read-out: LUC EC50 (μM) mRORg) [µM] | EC50 (human RORγ; read-out: LUC EC50 hRORg) [µM] | EC50 (mouse RORγ; read-out: LUC EC50 mRORg) [µM]
Cc1ccc(NC(=O)CC(CCO)c2noc(C3CC(CC(C)C)C3)c2C2CC2)c(C)c1 (stereo not shown) [Example F-580] |  |  | < 3 | < 3
Cc1ccc(NC(=O)[C@H]2CCCN[C@@H]2c2nnc(CCCC(C)(C)C)n2C2CC2)c(C)c1 [Example F-309] | < 3 | < 3 |  | 
Cc1c(Cl)cccc1NC(=O)CC(CO)c1nnc(CCC(C)C)n1C1CC1 (racemic) [Example F-167] | < 3 | < 3 |  | 
Cc1ccc(NC(=O)C[C@@H](CCO)c2nnc(CCC3CCCCC3)n2C2CC2)c(C)c1 [Example F-384] | > 3 | > 3 |  | 
CC(=O)N(CCc1nnc(CCC(=O)Nc2cccc(Cl)c2C)n1C1CC1)C(C)C [Example F-233] | > 3 | > 3 |  | 
Cc1cc(C(N)=O)ccc1NC(=O)CCc1nnc(CCC(C)C)n1C1CC1 [Example F-157] | > 3 | > 3 |  | 
Cc1ccc(NC(=O)C[C@H](OCC(F)(F)F)c2nnc([C@H]3C[C@@H](CC(C)C)C3)n2C2CC2)c(C)c1 [Example F-609] |  |  | < 3 | < 3
CNC(=O)[C@H]1CC[C@H](CCc2nnc(CCC(=O)Nc3cccc(Cl)c3C)n2C2CC2)CC1 [Example F-255] | > 3 | > 3 |  | 
Cc1ccc(NC(=O)CC(CN)c2nnc(CCCC(C)C)n2C2CC2)c(C)c1 (racemic) [Example F-274] | > 3 | > 3 |  | 
CCC(C)(C)CCc1nnc([C@H]2CN(C(C)=O)C[C@@H]2C(=O)Nc2ccc(C)cc2C)n1C1CC1 (racemic) [Example F-299] | < 3 | < 3 |  | 
COCc1ccc(C)c(NC(=O)CCc2nnc(CCC(C)C)n2C2CC2)c1 [Example F-174] | > 3 | > 3 |  | 
CC(=O)N1C[C@@H](C(=O)Nc2ccc(C)cc2C)[C@H](c2nnc([C@H]3C[C@@H](CC(C)(C)C)C3)n2C2CC2)C1 [Example F-462] | < 3 | < 3 |  | 
Cc1ccc(NC(=O)C[C@H](CCC(=O)O)c2noc(-c3cc(CC(C)C)n(C)n3)c2C2CC2)c(Cl)c1 [Example E-26] | < 3 | < 3 |  | 
Cc1cc(F)ccc1NC(=O)C[C@H](CC(=O)NS(C)(=O)=O)c1noc([C@H]2C[C@@H](CC(C)C)C2)c1C1CC1 [Example F-637] |  |  | < 3 | < 3
Cc1ccc(NC(=O)C[C@H](CCO)c2nnc([C@H]3C[C@@H](CC(C)C)C3)n2C2CC2)c(C)c1 [Example F-361] | < 3 | < 3 |  | 
Cc1c(CO)cccc1NC(=O)CCc1nnc(CCC(C)C)n1C1CC1 [Example F-87] | > 3 | > 3 |  | 
COc1cc(C)ccc1CNC(=O)[C@H]1CN(C(C)=O)C[C@@H]1c1nnc(CCCC(C)C)n1C1CC1 (racemic) [Example F-279] | < 3 | < 3 |  | 
Cc1ccc(NC(=O)C[C@H](CCO)c2nnc(C3CC4(CCC(F)(F)CC4)C3)n2C2CC2)c(C)c1 [Example F-619] |  |  | < 3 | < 3
CC1(c2cc(-c3onc([C@@H](CCC(=O)O)CC(=O)Nc4ccc(Cl)cc4F)c3C3CC3)no2)CCCC1 [Example E-71] | < 3 | < 3 |  | 
CCn1c(CCC(=O)Nc2cccc(Cl)c2C)nnc1CCC(C)C [Example F-52] | > 3 | < 3 |  | 
Cc1ccc(NC(=O)CCc2noc(CCC3CCCCC3)c2C2CC2)c(C)c1 [Example F-494] | < 3 | < 3 |  | 
Cc1ccc(NC(=O)CC(CN2C(=O)N(C)C(C)(C)C2=O)c2nnc(CCCC(C)(C)C)n2C2CC2)c(C)c1 (racemic) [Example F-508] |  |  | > 3 | > 3
COc1cccc(CNC(=O)CCc2nnc(CCC(C)C)n2C2CC2)c1C [Example F-127] | > 3 | > 3 |  | 
CC(=O)N1C[C@H](C(=O)Nc2ccc(C)cc2C)[C@@H](c2nnc(C3CC4(CCCCC4)C3)n2C2CC2)C1 [Example F-473] | < 3 | < 3 |  | 
COC1CCC(CCc2nnc(CCC(=O)Nc3cccc(Cl)c3C)n2C2CC2)CC1 (stereo not shown) [Example F-242] | > 3 | < 3 |  | 
CCCC(CC(=O)Nc1cccc(Cl)c1C)c1nnc(CCC(C)C)n1C1CC1 (racemic) [Example F-194] | < 3 | < 3 |  | 
